Among the data in PubChem BioAssay AID449764 (Southern Research Specialized Biocontainment Screening …, 2010) are IC50 and IC90 values, retold here.

Some results are limits rather than exact numbers.

The assay has as its system Mycobacterium tuberculosis H37Rv growth inhibition, no glycerol. The experiment in a line: Mycobacterium tuberculosis H37Rv growth inhibition, no glycerol, confirmatory dose response (AID 449764).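 As to all read-outs here: growth read after 7 days of incubation.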 Particulars: for IC90: measured here: IC90 growth inhibition.

Turning to `CN(CC(=O)Nc1ccc(F)c(F)c1F)c1cnccn1`, the IC50 (commonly the concentration needed to halve the response being measured) is 9.88 µM and the IC90 (commonly the concentration needed for an effect of 90%) stood at 13.4 µM. Regarding `c1ccc(-c2c3ccccc3nc3[nH]c4ccccc4c23)cc1`, the IC50 is 96.3 µM and the IC90 is greater than 100 µM. In the case of `CC(C)(C)c1ccc(C(=O)NNc2cc(N3CCCCC3)nc(N3CCCCC3)n2)cc1`, the half-maximal inhibitory concentration (IC50) was 62.7 µM and the IC90 stood at 74.4 µM.

With `Nc1c(N(CCC2=CCCCC2)C(=O)c2ccc([N+](=O)[O-])o2)c(=O)[nH]c(=O)n1Cc1ccccc1`, the IC50 was 27.9 µM and the IC90 worked out at 48.2 µM.

As for `CSC1=NC(C)(C)C=C(/C=C/c2ccc(Cl)cc2)N1`, the IC50 was 38.3 µM and the IC90 was 56.7 µM. The compound `COCCOC(=O)c1ccc(NC(=O)COc2ccc([N+](=O)[O-])cc2)cc1` yielded an IC90 greater than 100 µM. Consider `C/C(=N/Nc1ccnc2cc(Cl)ccc12)c1ccc(O)cc1`, for which the IC50 is 30.1 µM and the IC90 turned out to be 36.2 µM.

Consider `CCCc1cc(C(N)=S)ccn1`, for which the IC50 was 17.1 µM and the IC90 was greater than 100 µM.

For the compound `CCN(CC)C(=O)[C@H]1CC(CC(=O)NCC23CC4CC(CC(C4)C2)C3)C(=O)N2CCc3c([nH]c4ccccc34)[C@]12C` (some centres not stated), the IC50 was 19.4 µM and the IC90 turned out to be 29.7 µM. Consider `O=C(Nc1nc2nc(-c3ccccc3)cc(=O)n2[nH]1)c1ccccc1`, for which the IC50 is 22.8 µM and the IC90 is greater than 100 µM. Take `CC(C)n1cnc2c(NCc3ccccc3)cc(Cc3ccc(F)cc3)cc21`: the IC50 is 34.4 µM and the IC90 turned out to be 49.3 µM. On the same counts, the results for `Cc1nc(-c2ccccc2)sc1C(=O)/C=C/c1ccccc1` are 12.4 µM and 13.6 µM. For `O=C(CSc1nnnn1-c1ccc2c(c1)OCCO2)OC1CCCCC1`, the IC50 is 22.8 µM and the IC90 came to 25.7 µM. Turning to `O=c1[nH]c(CN2CC=C(c3ccccc3)CC2)nc2cc(C(F)(F)F)ccc12`, the IC50 is 93.7 µM and the IC90 came to 98.9 µM. As for `CN(C)c1ccc(CNc2nc(-c3ccccc3)nn2S(C)(=O)=O)cc1`, the IC50 is 14.2 µM and the IC90 was found to be 26.5 µM. With `CC(C)c1ccc(N2C(=O)NC(=O)/C(=C\C=C\c3ccco3)C2=O)cc1`, the IC50 is 44.5 µM and the IC90 came out at 49.7 µM. As for `CCc1nc(N2CCN(C(C)=O)CC2)c2c3c(sc2n1)CC(C(C)(C)C)CC3` (configuration not stated), the IC50 is 17.9 µM and the IC90 amounted to 21.5 µM. As to `CCOc1ccc(-c2cnc(NCc3cccc4ccccc34)n2CCOC)cc1`, the IC50 was 7.03 µM and the IC90 amounted to 11 µM. Take `CCOc1cc(/C=N/Nc2nc(Nc3ccccc3)nc(N3CCCCC3)n2)ccc1OCC(=O)O`: the IC50 is 20.5 µM and the IC90 was 27.6 µM. With `CCCCCCc1cc2cc(C(=O)NCc3ccccc3)c(=N)oc2cc1O`, the IC50 is 5.67 µM and the IC90 was 6.45 µM. As to `O=C(OCC(=O)c1c[nH]c2ccccc12)c1cc(Br)ccc1O`, the IC50 was 11.2 µM and the IC90 was determined as 13.1 µM. On the same counts, the results for `Cc1ccccc1NC1=C/C(=N\S(=O)(=O)c2cccs2)c2ccccc2C1=O` are 11.3 µM and 12.3 µM.

Regarding `O=C(C=C=Nc1ccccc1)C(=O)N=C=Cc1ccccc1`, the IC50 is 12.4 µM and the IC90 amounted to 20.5 µM. Consider `S=C(Nc1ccc(Cl)cc1)NC1CC2CCC(C1)N2Cc1ccccc1` (configuration not stated), for which the IC50 is 63.1 µM and the IC90 amounted to 95.6 µM. On to `COC(=O)C1=C(C)N(Cc2ccccc2)C(=NCc2cccc(Cl)c2)N[C@H]1c1ccccc1`, for which the IC50 was 20.4 µM and the IC90 is 26.6 µM. In the case of `O=[N+]([O-])c1cccnc1N1CCC(c2cc(-c3cccc(C(F)(F)F)c3)n[nH]2)CC1`, the IC50 was 21.5 µM and the IC90 stood at 34.4 µM. Consider `O=C(Nc1nc(-c2cc(Cl)sc2Cl)cs1)c1cccs1`, for which the IC50 is 67.7 µM and the IC90 is greater than 100 µM. Turning to `O=C(OCC#CCSc1nnc(-c2cccc3ccccc23)o1)c1cccs1`, the IC50 is 47.3 µM and the IC90 was greater than 100 µM. On to `Cn1ccnc1C(=O)C1CCCN(Cc2cn[nH]c2-c2ccc(-c3ccccc3)cc2)C1` (configuration not stated), for which the IC50 is 77.1 µM and the IC90 is 99.4 µM. On the same counts, the results for `Cc1cccc2c1N(CCCOc1ccc(C(C)(C)C)cc1)C(=O)C2=O` are 17.4 µM and 20.1 µM. On to `CCc1c(C2(O)CCCCC2)[nH]c2ccc(C(F)(F)F)cc12`, for which the IC50 is 40.2 µM and the IC90 is greater than 50 µM. For `CCOC(=O)c1cc(/C(C)=N/OC(=O)c2ccc(C(C)(C)C)cc2)on1` the same measures were 22.9 µM and 26.8 µM. Take `CC1CCCC(C)N1C(=O)COC(=O)c1cc(-c2cccs2)nn1-c1ccccc1` (configuration not stated): the IC50 was 62.2 µM and the IC90 was found to be 86.3 µM. Turning to `NC1=NC2(CCC(c3ccccc3)CC2)n2c(nc3ccccc32)N1` (configuration not stated), the IC50 is 32.5 µM and the IC90 amounted to 43.7 µM. With `CC(C)(C)C1CCc2c(sc3nc(SCC(N)=O)nc(N)c23)C1` (configuration not stated), the IC50 is 22.1 µM and the IC90 was found to be 33.5 µM. As for `COc1ccc(-c2nnc(SCC(=O)N3CCc4ccccc4C3)o2)cc1`, the IC50 was 30.6 µM and the IC90 is 45.3 µM. For `Cc1c(Cl)cccc1NC(=O)CN1CCC(C(O)(c2ccccc2)c2ccccc2)CC1`, the IC50 is 45.1 µM and the 90% effect concentration (IC90) is greater than 100 µM. On the same counts, the results for `CCOC(=O)CSc1nnc(-c2ccc(S(=O)(=O)NCc3cccs3)cc2)o1` are 5.1 µM and 7.29 µM.

Take `CCc1ccc(C2=NN(c3ccc(S(N)(=O)=O)cc3)C(c3ccc(F)cc3)C2)cc1` (configuration not stated): the IC50 is 40.5 µM and the IC90 was found to be 53.3 µM. For `C=CCNC(=O)c1onc(CCl)c1C(=O)OC`, the IC50 was 5.76 µM and the IC90 was determined as 14.2 µM. As for `COc1ccccc1/C(C)=N/NC(=S)NCc1ccccc1`, the IC50 was 23.6 µM and the IC90 was determined as 27.1 µM. On the same counts, the results for `O=C1C2C(c3ccccc3)(C(=O)N1c1ccc(Cl)cc1)C2(c1ccccc1)c1ccccc1` (configuration not stated) are 11.6 µM and 13.6 µM.

Turning to `Cc1cc(C(=O)CCl)c(C)n1-c1cccc([N+](=O)[O-])c1`, the IC50 is 2.42 µM and the IC90 turned out to be 6.49 µM. As for `CNC[C@H](Cc1cccc2ccccc12)NC[C@H](CCSC)NCC1CCC(C(C)(C)C)CC1` (some centres not stated), the IC50 is 42.6 µM and the IC90 was 47.1 µM. Take `CC(NCCCOc1cccc2ccccc12)c1ccccc1` (configuration not stated): the IC50 is 25.1 µM and the IC90 worked out at 28 µM.

In the case of `Cc1ccc(C2=NCCn3c2c2ccccc2[n+]3[O-])cc1`, the IC50 is 24.5 µM and the IC90 worked out at 31.7 µM.

Turning to `CC(=O)c1sc(NC(=O)c2cc(=O)c3ccccc3o2)nc1C`, the IC50 was 18.4 µM and the IC90 is greater than 100 µM. For the compound `Cn1ncnc2c(=O)n(C)c(=O)nc1-2`, the IC50 was 2.84 µM and the IC90 came to 4.51 µM. Regarding `CCCn1c(=N)n(CC(=O)c2ccc(OCC(=O)OC)cc2)c2ccccc21`, the IC50 is 20.1 µM and the IC90 came out at 35.9 µM. Regarding `Cc1csc(NC(=S)Nc2cccc(Cl)c2)n1`, the IC50 was 4.42 µM and the IC90 worked out at 6.91 µM. Consider `Fc1cccc(CCN2CCNC[C@H]2Cc2cccc3ccccc23)c1`, for which the IC50 was 35.5 µM and the IC90 was 46.3 µM. On to `O=S1(=O)CCC(N=Cc2ccc(-c3ccc(Cl)cc3)o2)C1` (configuration not stated), for which the IC90 is greater than 100 µM. Regarding `CCC(C)c1ccc2oc(-c3ccc(NC(=O)c4ncn[nH]4)cc3)nc2c1` (configuration not stated), the IC50 is 8.12 µM and the IC90 amounted to 33 µM. For `Cc1cc(C)c(C(N)=O)c(SCC(=O)c2ccc(Cl)cc2)n1` the same measures were 75.3 µM and greater than 100 µM. As for `CC1CCN(C(=S)NC(=O)c2cccs2)CC1`, the IC50 was 23 µM and the IC90 amounted to 26.3 µM. As for `c1ccc(Cn2c(CNc3nc4ccccc4n3CCN3CCCCC3)nc3ccccc32)cc1`, the IC50 is 44.6 µM and the IC90 came to 72.8 µM. On the same counts, the results for `O=C(O)c1ccc(N2C(=O)/C(=C/c3ccc(-c4ccc([N+](=O)[O-])cc4)o3)C=C2c2ccccc2)cc1` are 49.8 µM and greater than 100 µM.

As for `Cc1ccc(C)c(S(=O)(=O)N2CCC(c3nc4c(nnn4Cc4ccc5c(c4)OCCO5)c(=O)[nH]3)CC2)c1`, the IC50 was 24.2 µM and the IC90 was greater than 100 µM. `CC(=O)n1cc(N(C(=O)CCl)c2ccc(Cl)cc2)c2ccccc21`: the IC50 was 3.7 µM and the IC90 came to 6.76 µM.

For `Cc1cccc(N2CCN(CCCNC(=O)c3ccc(NC(=O)C4=CSCCO4)cc3)CC2C)c1` (configuration not stated), the IC50 was 19.7 µM and the IC90 was determined as 28.7 µM. As to `C=CCc1c(C)nc(SC)nc1Nc1ccc(C(C)=O)cc1`, the IC50 is 34.6 µM and the IC90 worked out at 52.4 µM.

`CCOC(=O)N1CCC(n2c(SCC(=O)OCc3ccccc3)nc3ccsc3c2=O)CC1`: the IC50 is 61.6 µM and the IC90 is greater than 100 µM. With `NC(=S)N/N=C/c1ccccc1OCCSc1ccc(Cl)cc1`, the half-inhibitory concentration (IC50) was 37.8 µM and the IC90 was greater than 100 µM.

As to `Cc1cc(C=C2C(=O)NC(=S)NC2=O)c(C)n1C1CCCC1`, the IC50 is 34.9 µM and the IC90 worked out at 73.9 µM.

Take `CCc1ccc(NC(=O)CSc2nc3n[nH]c(C)c3c(=N)n2-c2cccc(OC)c2)cc1`: the IC50 was 72.8 µM and the IC90 was greater than 100 µM.

In the case of `Cn1/c(=N/NC(=O)c2cccc(OC(F)F)c2)sc2ccccc21`, the IC50 is 9.17 µM and the IC90 worked out at 24.1 µM.

Turning to `OC(CNCC(c1ccc(Cl)cc1Cl)c1c[nH]c2ccccc12)c1ccccc1` (configuration not stated), the IC50 was 22.9 µM and the IC90 came to 26.2 µM. For `Cc1ccc(OCc2cc(C(=O)N(C)Cc3cnc4ccccn34)no2)cc1C` the same measures were 35.1 µM and greater than 100 µM.

As to `Cc1ccc2nc(=O)c(NNc3ccccc3)cnc2c1`, the IC50 was 35.3 µM and the IC90 is greater than 100 µM. For `Brc1ccc(-c2nc3ncccn3c2Nc2ccc3c(c2)OCCO3)o1`, the IC50 is 90.7 µM and the IC90 was greater than 100 µM.

Regarding `CCc1nnc(N/N=C/c2cc(C)c(C)cc2C)n1N`, the IC50 is 5.95 µM and the IC90 was 6.55 µM.

For `N=C1C(c2nc3ccccc3[nH]2)=C(O)CN1NC(=O)c1c[nH]c2ccccc12`, the IC50 was 26.7 µM and the IC90 was determined as 40.1 µM.
